Results: PMC3914206

Experiments:
panel of 442 kinases [1] = molecular target: T1, panel of 442 kinases (Homo sapiens, UniProt O60331); format: binding; settings: Compound Concentration 10 µM
T1 construct: purchased KINOMEscan
Excerpt: (§1) We assessed the selectivity of members of this scaffold using the KINOMEscan methodology across a near comprehensive panel of 442 kinases [[18,27]].

panel of 442 kinases [2] = molecular target: T2, panel of 442 kinases (Homo sapiens, UniProt P29320); format: binding; settings: Compound Concentration 10 µM
T2 construct: purchased KINOMEscan
T2 sequence (P29320 21-983): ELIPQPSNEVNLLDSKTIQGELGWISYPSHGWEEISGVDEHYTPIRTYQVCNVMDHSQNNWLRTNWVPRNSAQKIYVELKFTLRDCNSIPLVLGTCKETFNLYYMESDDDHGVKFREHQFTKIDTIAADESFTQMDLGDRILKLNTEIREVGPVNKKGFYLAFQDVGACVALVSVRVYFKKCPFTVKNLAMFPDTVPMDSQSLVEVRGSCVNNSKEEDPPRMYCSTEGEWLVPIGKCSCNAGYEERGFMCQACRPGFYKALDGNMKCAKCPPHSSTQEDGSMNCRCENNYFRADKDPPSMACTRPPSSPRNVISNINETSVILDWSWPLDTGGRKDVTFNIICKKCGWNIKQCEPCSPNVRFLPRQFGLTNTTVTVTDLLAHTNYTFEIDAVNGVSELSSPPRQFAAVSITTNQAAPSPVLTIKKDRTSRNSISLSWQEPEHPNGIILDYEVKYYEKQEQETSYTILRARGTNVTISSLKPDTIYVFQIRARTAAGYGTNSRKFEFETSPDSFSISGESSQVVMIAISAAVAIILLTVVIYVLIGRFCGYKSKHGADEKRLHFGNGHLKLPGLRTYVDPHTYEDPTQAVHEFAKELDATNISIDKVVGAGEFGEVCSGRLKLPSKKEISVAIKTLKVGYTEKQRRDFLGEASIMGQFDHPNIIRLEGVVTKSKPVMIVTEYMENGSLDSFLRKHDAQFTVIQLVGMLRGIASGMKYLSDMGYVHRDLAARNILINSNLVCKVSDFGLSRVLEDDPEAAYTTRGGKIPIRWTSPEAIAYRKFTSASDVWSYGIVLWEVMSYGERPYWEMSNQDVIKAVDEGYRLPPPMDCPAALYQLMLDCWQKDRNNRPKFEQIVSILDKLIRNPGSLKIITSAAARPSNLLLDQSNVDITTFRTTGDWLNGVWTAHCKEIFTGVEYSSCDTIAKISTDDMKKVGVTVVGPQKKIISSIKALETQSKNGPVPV
Excerpt: as §1

T1 sequence (O60331 whole entry): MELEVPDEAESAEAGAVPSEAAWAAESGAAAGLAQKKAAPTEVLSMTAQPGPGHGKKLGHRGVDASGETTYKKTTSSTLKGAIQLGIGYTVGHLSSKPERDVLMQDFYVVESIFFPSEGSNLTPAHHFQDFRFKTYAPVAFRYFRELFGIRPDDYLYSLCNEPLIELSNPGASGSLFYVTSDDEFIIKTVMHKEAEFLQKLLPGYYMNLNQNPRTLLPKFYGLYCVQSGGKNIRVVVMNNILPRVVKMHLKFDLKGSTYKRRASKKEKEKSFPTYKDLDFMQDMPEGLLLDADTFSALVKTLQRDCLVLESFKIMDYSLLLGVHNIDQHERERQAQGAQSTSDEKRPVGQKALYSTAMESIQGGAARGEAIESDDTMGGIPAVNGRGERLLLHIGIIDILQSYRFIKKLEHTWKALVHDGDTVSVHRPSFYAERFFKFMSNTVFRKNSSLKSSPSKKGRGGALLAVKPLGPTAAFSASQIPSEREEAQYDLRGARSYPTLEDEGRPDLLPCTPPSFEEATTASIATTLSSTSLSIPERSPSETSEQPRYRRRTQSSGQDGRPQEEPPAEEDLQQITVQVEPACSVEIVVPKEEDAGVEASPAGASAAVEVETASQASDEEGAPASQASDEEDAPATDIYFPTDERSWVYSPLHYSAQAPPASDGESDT

Structure (SMILES) | KINOMEscan: PIP5K1C (panel of 442 kinases [1]) | KINOMEscan: EPHA3 (panel of 442 kinases [2])
COc1cc(C(=O)N2CCC(N3CCN(C)CC3)CC2)ccc1Nc1ncc2c(n1)N(C)c1ccccc1C(=O)N2C [15 (LRRK2-IN-1)] | 96 | 100
COc1cc(C(=O)N2CCC(N3CCN(C)CC3)CC2)ccc1Nc1ncc2c(n1)N1CCc3cccc(c31)C(=O)N2C [Compound 24] | 6.3 | 91
COc1cc(C(=O)N2CCC(N3CCN(C)CC3)CC2)ccc1Nc1ncc2c(n1)N(C1CCCC1)c1ccccc1C(=O)N2C [Compound 25, 11-cyclopentyl-2-((2-methoxy-4-(4-(4-methylpiperazin-1-yl)piperidine-1-carbonyl)phenyl)amino)-5-methyl-5H-benzo[e]pyrimido[5,4-b][1,4]diazepin-6(11H)-one] | 100 | 100
CCOc1cc(C(=O)N2CCC(N3CCN(C)CC3)CC2)ccc1Nc1ncc2c(n1)N(C1CCCC1)c1ccccc1C(=O)N2C [Compound 26] | 100 | 95
